Experimental data published in article PMC12405493, “Selective ubiquitination of drug-like small molecules by the ubiquitin ligase HUWE1” (Nature Communications, 2025).

Legend:
HEK293T cells [1] = experiment: Ub remnant profiling (diGly proteomics); assay type: cell-based, human; settings: 15 μM, 24 h vs DMSO
Method: (§1) For total proteomics and Ub remnant profiling (diGly proteomics), HEK293T cells were treated with 15 μM BI8626 (in DMSO) or an equivalent volume of DMSO for 24 h, washed with ice-cold 1 x DPBS, and lysed in 9 M urea, 50 mM Tris (pH 8.0) and 150 mM NaCl, supplemented with protease inhibitor (Roche) and 50 µM PR-619, and processed essentially as described. Briefly, the cells were lysed by sonication, non-solubilized material removed by centrifugation, and the protein concentration was determined with a Pierce BCA Protein Assay Kit. 5 mg was used for further MS processing and four biological replicates per condition.
(§2) After reduction with 5 mM DTT and alkylation with 10 mM chloroacetamide, followed by quenching with 5 mM DTT, lysates were digested with 5 ng/μl LysC protease (Wako) at RT for 1 h. Subsequent digestion of peptides with trypsin (Promega) at a 1: 200 enzyme: peptide ratio was performed. Desalted and lyophilized peptides were resuspended in 1.5 ml IAP buffer (50 mM MOPS (pH 7.2), 10 mM Na2HPO4, 50 mM NaCl) and centrifuged to remove insoluble material. […]
(§3) Data collection was controlled by Tune v.4.0.4084.22 (Thermo Scientific) and Xcalibur v.2.4 (Thermo Fisher Scientific). Raw data files from quadruplicate samples were analyzed using MaxQuant v.1.6.0.1 (Max Planck Institute of Biochemistry)[56],[57]. […]

HEK293T cells [2] = experiment: Quantitative total proteomics; assay type: cell-based, human; settings: 15 μM, 24 h vs DMSO
Method: as §1, §2, §3

Question: NCc1cccc(CNc2ncnc3c(N4CCN(Cc5ccccc5)CC4)ncnc23)c1 [BI8626] was tested. Which “Protein ubiquitination changes (diGly proteomics)” value (HEK293T cells [1]) did it give?
Answer: Its value is “predominantly reductions in protein ubiquitination”.

Question: And the Total proteome changes (HEK293T cells [2])?
Answer: The Total proteome changes was “widespread compound-induced changes”.
